US10704075B2, “Method for determining the reaction of a microorganism to its exposure to a chemical compound” (bioMérieux, priority 2015, dated 2020)
≈ marks a conversion by molar mass, not a printed value.

Assays:
[1] = system: Escherichia coli strain ATCC 25922 called "EC10"; assay: Raman spectroscopy analysis of individual bacteria exposed to an antibiotic (method of the invention), strain EC10; type: cell-based
Protocol: (§1) The retained conditioning device is constituted of two fluidic chambers and two antibiotic concentrations are tested: c0: “Without antibiotic” and “Resistance test”.
Let c1 be the concentration of gentamicin: c1=8 μg/mL, which corresponds to the doubling of the concentration 4 μg/mL corresponding to the clinical breakpoint as defined by the EUCAST. The objective of this test is to determine whether the bacterium is considered as resistant according to the definitions provided by the EUCAST.
A solution containing the bacteria to be tested is used as a test sample. This solution is obtained by suspending 5.10^7 CFU/mL in order to have a concentration potentially encountered in a clinical sample, for example a urine collection. This bacteria solution is brought into contact with the interface I of the device functionalized by adsorbing polyethylenimine (PEI) (generic capture). After a capture time of 10 minutes allowing the bacteria to come into contact with the functionalization, the interface I is washed with a water solution, this optional step allowing to eliminate the surplus of uncaptured bacteria still in solution. The physiological medium retained in this example is constituted of a poorly enriched mixture of Bouillon TSB-T Trypcase Soy broth (for example of the reference 42100 of bioMérieux) and of PBS 10× (for example obtained from the PBS tablets of the reference A9162, 0100 of the brand AppliChem) in a 1:9 ratio. After dividing this physiological medium into two fractions, an amount of gentamicin (for example of the reference G1397-10ML of Sigma-Aldrich) is added respectively to each of these fractions, allowing to obtain a different concentration of gentamicin c0 or c1. The solutions of concentrations c0 and c1 produced accordingly are respectively introduced into the chambers C0 or C1. The bacteria captured directly from the sample on the surface I are thus exposed, in a suitable medium, to a different antibiotic concentration depending on the chamber in which they are present.
The device is then heated in order to reach a temperature of 37° C. for two hours and then placed in measurement position on the micro-spectrometer. The marking of the captured bacteria is carried out by an automatic procedure based on image analysis, by a conventional procedure for detecting particles, acquired by means of the micro-spectrometer camera and a suitable light source. This marking allows acquiring automatically a series of Raman spectra (S0 and S1, respectively) acquired on individual bacteria present in each chamber C0 and C1. The number of spectra to be acquired for constituting a dataset depends on the level of requirement on the performances of the tests to be carried out. […]

[2] = system: Escherichia coli strain ATCC 25922; conditions: cited from earlier work
[3] = system: Escherichia coli strain ATCC 35421 called "EC21"; assay: Reference methods, strain EC21; type: cell-based; conditions: for phenotype according to the EUCAST / reference: from reference MIC
Protocol: A MIC>8 μg/mL can be assigned to this strain with this test, which is also consistent with the results obtained by the reference method.

[4] = system: Escherichia coli strain ATCC 35421 called "EC21"; assay: Raman spectroscopy analysis of individual bacteria exposed to an antibiotic (method of the invention), strain EC21; type: cell-based
Protocol: A test identical to that of Example 1 is conducted on another strain of Escherichia coli, the strain ATCC 35421 called “EC21” allows confirming the discriminatory nature of the measurement.
In order to illustrate the discriminating power of this method, the same test performed for a strain of Escherichia coli ATCC 35421 resistant to amoxicillin called “EC21” is also shown.
A solution containing the bacteria to be tested, EC10 or EC21, is used as test sample. This solution is obtained by suspending 5 10^7 CFU/mL in water in order to have a concentration potentially encountered in a clinical sample, for example a urine collection. This bacteria solution is distributed in 5 filter tubes (for example MICROCON (Centrifugal filters) YM100 from Millipore) at a rate of 150 μL per tube. A sufficient amount is added to each of these tubes for the final 250 μL of physiological medium allowing the growth constituted in this example of a mixture of PBS of final concentration of 1× (obtained from the PBS tablets of the reference A9162,0100 of the brand AppliChem), of a nutrient medium TSB 0.1× (for example obtained from Bouillon TSB-T […] A8523-10ML of Sigma-Aldrich) as follows: • c0=0 μg/mL • c1=2 μg/mL • c2=4 μg/mL • c3=8 μg/mL • c4=16 μg/mL
The 5 tubes obtained accordingly are incubated for 2 hours at 37° C. with stirring. Centrifugation at 1200 g for 8 minutes using a centrifuge adapted to the used containers (for example the model 8415C of the brand Eppendorf) then allows retrieving a bacterial pellet on the filter portion of each tube and eliminating the medium. The bacterial pellets are respectively resuspended in water in order to carry out a washing before being again pelletized by centrifugation (1200 g for 10 minutes) always on the filter portion of the tube. These pellets are distributed on a glass slide of the Marienfield type constituting the interface I (not functionalized in this configuration) by means of a swab in corresponding chambers noted C0 to C4. […]

[5] = system: Escherichia coli strain ATCC 25922 called "EC10"; assay: Reference methods (bioMérieux ETEST and VITEK card N233), strain EC10; type: cell-based; conditions: for phenotype according to the EUCAST / reference: from reference MIC
Description: In order to illustrate the performances obtained accordingly, the average score obtained for all the results that would be obtained with a combination of 5 spectra per concentration (N=5) out of a total set of total acquired spectra of 294 spectra (M=294) is shown in FIG. 4. […] The score indicates the percentage of the test samples that are assigned to a given class by the classifier described above. […] The strain can therefore be described as sensitive according to the invention with a high reliability on the basis of only a few individual bacteria analyses. The result is consistent with the reference methods [BioMérieux products ETEST® (antimicrobial susceptibility testing kit) GM 256 (ref. 412368) and VITEK® card N233 (Gram Negative Susceptibility card; ref. 413117)] which give as a result a MIC=1 μg/mL, which confirms that the bacterium is not resistant according to the EUCAST, its MIC not being strictly above the threshold defined by this organism.
A MIC comprised between 4 μg/mL and 8 μg/mL can therefore be assigned to this strain according to the assays. This variability to a dilution factor is very frequent in this type of assay, the EUCAST indicates, for example, ranges of MIC variations of [2-8]μg/mL for this strain ATCC 25922 during quality controls of the MIC disc diffusion tests, and is therefore consistent with expected results.
The detection of an effect for concentrations greater than 0.005 μg/mL is thus observed. An antibiotic effect of ciprofloxacin can therefore be assigned to the strain tested for concentrations greater than 0.005 μg/mL. This test would therefore define a concentration of 0.005 μg/mL as a MIC. A new test could possibly be performed by adding the lowest concentrations between 0 and 0.005 μg/mL if necessary. […] A test performed with a suitable etest (bioMérieux) allows measuring a MIC of 0.008 μg/mL which confirms that the obtained result is in accordance with the reference methods [BioMérieux products ETEST® CI 32 (antimicrobial susceptibility testing kit; ref. 412311) and VITEK® card N233 (Gram Negative Susceptibility card; ref. 413117)].

[6] = system: Staphylococcus aureus strain ATCC 25923 called "SA44"; assay: Reference methods (bioMérieux ETEST OX 256 or VITEK card P631), strain SA44; type: cell-based
[7] = system: Staphylococcus aureus strain ATCC 25923 called "SA44"; assay: Raman spectroscopy analysis of individual bacteria exposed to an antibiotic (method of the invention), strain SA44; type: cell-based
Protocol: as §1
Let c1 be the concentration of oxacillin: c1=8 μg/mL which corresponds to multiplying by a factor of 32 the concentration of 0.25 μg/mL which corresponds to the clinical breakpoint as defined by the EUCAST. The objective of this test is to determine whether the bacterial strain is considered as resistant according to the definitions provided by the EUCAST.
A solution containing the bacteria to be tested is used as a test sample. This solution is obtained by suspending 5.10^7 CFU/mL in order to have a concentration potentially encountered in a clinical sample, for example a urine collection. The bacteria can come from a culture in a liquid medium or a culture in agar medium in Petri dish. This bacteria solution is brought into contact with the interface I of the device functionalized by adsorbing polyethylenimine (PEI) (generic capture). After a capture time of 10 minutes allowing the bacteria to come into contact with the functionalization, the interface I is washed with a water solution, this optional step allowing to eliminate the surplus of uncaptured bacteria still in solution. […]

E. coli = conditions: cited from earlier work

## CC1(C)S[C@@H]2[C@H](NC(=O)[C@H](N)c3ccc(O)cc3)C(=O)N2[C@H]1C(=O)O [amoxicillin]
[1]; Escherichia coli, ATCC25922, Raman, 2 hours at 37° C. incubation, read-out: MIC assigned by the method of the invention
  MIC: 4 to 8 µg/mL (≈ 10.9 to 21.9 µM)
[2]; quality control range
  EUCAST range of MIC variations (acceptable variation range): 2 to 8 µg/mL
[3]; Escherichia coli, ATCC35421, read-out: MIC (reference methods, MICREF)
  MIC: 256 µg/mL (≈ 701 µM)
[3]
  phenotype according to the EUCAST / reference: resistant
[4]; Escherichia coli, ATCC35421, Raman, tested 0, 4 and 8 μg/mL, N=11, read-out: MIC assigned by the method of the invention
  MIC: > 8 µg/mL
[4]; amoxicillin 4 and 8 μg/mL, N=11, FIG. 7
  category assigned to the vast majority of the measured groups: without ATB effect
[5]; Escherichia coli, ATCC25922, read-out: MIC (reference methods, MICREF)
  MIC: 6 µg/mL
[5]
  phenotype according to the EUCAST / reference: sensitive

## O=C(O)c1cn(C2CC2)c2cc(N3CCNCC3)c(F)cc2c1=O [ciprofloxacin]
[1]; Raman, distance to gentamicin reference signature, tested 0, 0.005, 0.015, 0.064 μg/mL
  concentrations at which an antibiotic effect is detected: greater than 0.005 μg/mL
[2]
  EUCAST known MIC: 0.008 µg/mL

## Cc1onc(-c2ccccc2)c1C(=O)N[C@@H]1C(=O)N2[C@@H]1SC(C)(C)[C@@H]2C(=O)O [oxacillin]
[6]; Staphylococcus aureus, ATCC25923, ETEST OX 256 or VITEK card P631
  MIC: 0.25 µg/mL (≈ 0.623 µM)
[6]; from reference MIC
  phenotype according to the EUCAST / reference: not resistant
[7]; Raman test at 8 μg/mL
  sensitivity phenotype according to the invention: sensitive
[7]; oxacillin 8 μg/mL, 2 hours at 37° C., N=9, M=337, FIG. 12 (liquid medium cultures)
  percentage of test samples classified as "ATB effect": greater than 97%

## gentamicin
[1]; Raman test at 8 μg/mL
  sensitivity phenotype according to the invention: sensitive
[1]; gentamicin 8 μg/mL, 2 hours at 37° C., N=5 spectra per sample, M=294, SVM classifier
  percentage of test samples classified as "ATB effect": 97.1%
[3]
  phenotype according to the EUCAST / reference: resistant
[3]; reference methods
  MIC (reference methods, MICREF): > 256 µg/mL
E. coli
  typical MIC, or epidemiological cut-off of the species: 2 μg/mL
[4]; gentamicin 8 μg/mL, N=5, M=133
  percentage of performed tests that do not show a characteristic effect profile of the antibiotic agent: 100%
[5]; ETEST / VITEK card N233
  MIC (reference methods, MICREF): 1 µg/mL
[5]
  phenotype according to the EUCAST / reference: not resistant
